# Experiments:
# [1] = test system: Ienssen's sarcoma; assay: Growth of graft Ienssen sarcoma in rats; format: in vivo
# Description: (§1) The antitumor activity has been studied on white rats weighing 110-130 g, as well as on white noninbred and inbred mice weighing 17-21 g with ligated tumors. The treatment is started 5-7 days transplanting of solid tumors and the following day after the transplanting of leukotic strains. Use has been made of the following transplantable strains of the tumors:
# (§2) (1) rats: Ienssen's sarcoma, sarcoma 45, sarcoma M-1, sarcoma 536;
# (§3) The compounds of the general formula (I), wherein X represents Cl^- (compound 1), Br^- (compound 2) are well-soluble in an isotonic solution of sodium chloride and they are administered intraperitoneally. The doses of the compounds have been calculated in mg per kg of the animal bodyweight.
# [2] = test system: sarcoma 45; assay: Growth of graft sarcoma 45 in rats; format: in vivo; conditions: for Change in the animal body weight, test / It, % tumor growth suppression index: rats
# Description: as §1, §2, §3
# [3] = test system: sarcoma 536; assay: Growth of graft sarcoma 536 in rats; format: in vivo
# Description: as §1, §2, §3
# [4] = test system: sarcoma M-1; assay: Growth of graft sarcoma M-1 in rats; format: in vivo
# Description: as §1, §2, §3
# [5] = test system: sarcoma 180; assay: Growth of graft sarcoma 180 in mice; format: in vivo, noninbred white mice; conditions: mice, at MTD (dose not given)
# Description: as §1
# (§4) (2) noninbred white mice: sarcoma 180, sarcoma AK, sarcoma 37, carcinoma HK;
# as §3
# [6] = test system: sarcoma 37; assay: Growth of graft sarcoma 37 in mice; format: in vivo, noninbred white mice; conditions: mice, at MTD (dose not given)
# Description: as §1, §4, §3
# [7] = test system: sarcoma AK; assay: Growth of graft sarcoma AK in mice; format: in vivo, noninbred white mice; conditions: mice, at MTD (dose not given)
# Description: as §1, §4, §3
# [8] = test system: leukemia La; assay: Life span of mice with transplantable leukemia La; format: in vivo, inbred mice; conditions: leukemia La, MTD
# Description: as §1
# (§5) (3) inbred mice: leukemia La, leukemia L1210 and P-388.
# (§6) The activity of compounds relative to leukosis has been assessed by the life span (It) of treated animals as compared to the control ones. It --index of suppression of leukosis development is calculated by the formula: [formula]
# [9] = Toxicity on single and repeated administration to mice; format: in vivo
# Description: (3) acute toxicity of the compounds upon a single and repeated administration to white noninbred mice places into standard cages with 8 animals in each.
# In the investigation of toxic properties of the compounds according to the present invention there has been determined the absolutely lethal dose (DL95), average lethal dose (DL50) and MTD. For compounds 1 and 2 there were determined DL95 and DL50 on healthy white mice with the body mass of 18-21 g at a single and repeated (once a day, daily for 7 days) intraperitoneal administration.
# [10] = Solubility; format: physicochemical
# Description: as §3
# To a mixture of 3 g of N^1,N^2 -dispirotripiperazinium dichloride, 1.5 g of lithium hydroxide, 1 ml of water and 10 ml of ether a solution of 5.2 g of β-bromopropionic acid chlorid in 5 ml of ether is added under vigorous stirring and at a temperature of 5° to 10° C. The reaction mass is stirred for 2 hours at the temperature of 15° C. The residue is filtered off, dissolved in 10 ml of water; the resulting aqueous solution is poured in 100 ml of methanol.
# [11] = test system: transplantable leukemia; assay: Activity relative to leukoses of inbred mice (overall); format: in vivo
# Description: (2) activity of the compounds relative to leukoses of inbred mice;
# as §1, §5, §6
# [12] = rats, 21 mg/kg intraperitoneally, 44 injections
# [13] = rats, 39 mg/kg intraperitoneally, 5 injections
# [14] = rats, 86 mg/kg intraperitoneally, 4 injections
# [15] = rats, 88 mg/kg intraperitoneally, 5 injections
# [16] = rats, 2,1 mg/kg intraperitoneally, 7 injections
# [17] = rats, 4,2 mg/kg intraperitoneally, 7 injections
# [18] = 44 mg/kg intraperitoneally, 7 injections
# [19] = 83 mg/kg intraperitoneally, 7 injections
# [20] = rats, 81 mg/kg intraperitoneally, 6 injections
# [21] = mice, single intraperitoneal administration
smiles,measurement,setting,value
O=C(CCBr)N1CC[N+]2(CC1)CC[N+]1(CCN(C(=O)CCBr)CC1)CC2 [Compound 2],Ch/T chemotherapeutical index (ratio of MTD to minimum effective dose),[1]; Ienssen sarcoma,50
same,Maximum tolerable dose (MTD),"[1]; rats with Ienssen sarcoma, repeated intraperitoneal administration",149 mg/kg
same,"Change in the animal body weight, test","[1]; rats, 8 mg/kg intraperitoneally, 7 injections",+21 g
same,"Change in the animal body weight, test",[1]; [12],+34 g
same,"It, % tumor growth suppression index",[1]; [12],+90%
same,"Change in the animal body weight, test",[1]; [13],+14 g
same,"It, % tumor growth suppression index",[1]; [13],+99%
same,"Change in the animal body weight, test",[1]; [14],+1 g
same,"It, % tumor growth suppression index",[1]; [14],+99%
same,"Change in the animal body weight, test",[1]; [15],+1 g
same,"It, % tumor growth suppression index",[1]; [15],+99%
same,"Change in the animal body weight, test","[1]; rats, 149 mg/kg intraperitoneally (MTD), 5 injections",-30 g
same,"Change in the animal body weight, test",[1]; [16],+5 g
same,"It, % tumor growth suppression index",[1]; [16],+46%
same,"Change in the animal body weight, test",[1]; [17],+6 g
same,"It, % tumor growth suppression index",[1]; [17],+35%
same,Maximum tolerable dose (MTD),"[2]; rats with sarcoma 45, repeated intraperitoneal administration",95 mg/kg
same,"Change in the animal body weight, test","[2]; 20 mg/kg intraperitoneally, 7 injections",-12 g
same,"It, % tumor growth suppression index","[2]; 20 mg/kg intraperitoneally, 7 injections, 20 mg/kg",+66%
same,"Change in the animal body weight, test",[2]; [18],+4 g
same,"It, % tumor growth suppression index",[2]; [18],+96%
same,"Change in the animal body weight, test",[2]; [19],+6 g
same,"It, % tumor growth suppression index",[2]; [19],+96%
same,"Change in the animal body weight, test","[2]; 95 mg/kg intraperitoneally (MTD), 6 injections",-6 g
same,Maximum tolerable dose (MTD),"[3]; rats with sarcoma 536, repeated intraperitoneal administration",133 mg/kg
same,"Change in the animal body weight, test",[3]; [20],-15 g
same,"It, % tumor growth suppression index",[3]; [20],+52%
same,"Change in the animal body weight, test","[3]; rats, 133 mg/kg intraperitoneally (MTD), 5 injections",-14 g
same,Maximum tolerable dose (MTD),"[4]; rats with sarcoma M-1, repeated intraperitoneal administration",95 mg/kg
same,"Change in the animal body weight, test","[4]; rats, 95 mg/kg intraperitoneally (MTD), 6 injections",+8 g
same,suppression of sarcoma 180,[5],52%
same,suppression of sarcoma 37,[6],60%
same,suppression of sarcoma AK,[7],81%
same,extension of life span of treated mice as compared to the control,[8],2 times
same,DL50 (average lethal dose),"[9]; mice, repeated intraperitoneal administration (once a day, daily for 7 days)",150 mg/kg
same,DL50 (average lethal dose),[9]; [21],"1,150 mg/kg"
same,DL95 (absolutely lethal dose),[9]; [21],"1,250 mg/kg"
same,MTD,[9]; repeated intraperitoneal administration,125 mg/kg
same,solubility in an isotonic solution of sodium chloride,[10],well-soluble
same,effect on transplantable leukemia in mice,[11],clearly pronounced antileukotic effect
